# Like-named read-outs stand apart in the source and are kept apart here.
# Columns and labels:
# LasB = molecular target: T1, LasB (Pseudomonas aeruginosa, UniProt P14756); test: Elastin assay to determine % inhibition (Elastin Congo-Red, dialysed culture supernatant); assay type: biochemical, P. aeruginosa PAO1; settings: read-out: Elastin hydrolysis % inhibition @ 50 / 25 µM inhibitor concentration
# T1 construct: uses as source of enzyme dialysed supernatant from P. aeruginosa PAO1; endogenous in cells; host or cells: P. aeruginosa PAO1 culture supernatant, filtered and dialysed
# T1 sequence (P14756 198-498): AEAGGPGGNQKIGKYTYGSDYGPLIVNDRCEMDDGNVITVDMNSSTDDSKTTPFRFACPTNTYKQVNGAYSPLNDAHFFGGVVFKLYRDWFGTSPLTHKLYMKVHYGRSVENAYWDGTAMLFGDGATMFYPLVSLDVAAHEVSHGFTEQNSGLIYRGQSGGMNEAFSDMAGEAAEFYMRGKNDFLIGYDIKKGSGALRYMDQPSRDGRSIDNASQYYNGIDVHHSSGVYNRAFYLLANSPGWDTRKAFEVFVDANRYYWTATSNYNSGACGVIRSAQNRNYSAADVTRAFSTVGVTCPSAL
# Outline: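 Enzyme source was dialysed PAO1 culture supernatant (50 mM Tris-HCl pH 7.4, 2.5 mM CaCl2), mixed with Elastin Congo-Red and 0.01% Triton X-100. Compound was routinely 50 to 1.56 µM, incubated overnight at 37 °C with shaking. Dye release at OD495 gave % inhibition relative to DMSO and no-enzyme controls.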
# [1] = molecular target: T2, purified LasB protein from P. aeruginosa (Pseudomonas aeruginosa, UniProt P14756); test: Fluorometric assay to determine Ki (Abz-Ala-Gly-Leu-Ala-p-Nitro-Benzyl-Amide substrate); assay type: biochemical
# T2 construct: purchased Merck or Charles River Laboratories
# T2 sequence (P14756 198-498): as above
# Outline: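 Purified P. aeruginosa LasB (10–140 ng/ml) with 250 µM Abz-Ala-Gly-Leu-Ala-p-nitrobenzylamide in 50 mM Tris-HCl pH 7.4, 2.5 mM CaCl2, 0.01% Triton X100, 37 °C; hydrolysis fluorescence (Ex 340/Em 415 nm) followed over 30 min, inhibitor 0.0016–200 µM. Ki = IC50/(1+[S]/Km), Km 214 µM.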
Structure (SMILES),inhibition at 25 µM (LasB),Ki [1],"Ki ([1]; Ki calculated from IC50, [S] = 250 µM, Km = 214 µM, 37°C, pH 7.4)"
"COc1cc(OCCN2CCOCC2)ccc1-c1csc(CNC(=O)C2(CC(=O)O)Cc3ccccc3C2)n1 [Example 76, 2-[2-[[4-[2-methoxy-4-(2-morpholinoethoxy)phenyl]thiazol-2-yl]methylcarbamoyl]indan-2-yl]acetic acid]",> 75%,< 50 nM,–
"COc1cc(OCc2ccc[n+](C)c2)ccc1-c1csc(CNC(=O)C2(CC(=O)[O-])Cc3ccccc3C2)n1 [Example 77, 2-[2-[[4-[2-methoxy-4-[(1-methylpyridin-1-ium-3-yl)methoxy]phenyl]thiazol-2-yl]methylcarbamoyl]indan-2-yl]acetate]",10 to 60%,50 to 200 nM,–
"COc1cc(OCc2cccnc2)ccc1-c1csc(CNC(=O)C2(CC(=O)O)Cc3ccccc3C2)n1 [Example 78, 2-[2-[[4-[2-methoxy-4-(3-pyridylmethoxy)phenyl]thiazol-2-yl]methylcarbamoyl]indan-2-yl]acetic acid]",> 75%,< 50 nM,–
"COc1cc(OCC(=O)N2CC[N+](C)(C)CC2)ccc1-c1csc(CNC(=O)C2(CC(=O)[O-])Cc3ccccc3C2)n1 [Example 79, 2-[2-[[4-[4-[2-(4,4-dimethylpiperazin-4-ium-1-yl)-2-oxo-ethoxy]-2-methoxy-phenyl]thiazol-2-yl]methylcarbamoyl]indan-2-yl]acetate]",60 to 75%,50 to 200 nM,–
"COc1cc(OCCCN(C)C)ccc1-c1csc(CNC(=O)C2(CC(=O)O)Cc3cc(F)c(F)cc3C2)n1 [Example 80, 2-[2-[[4-[4-[3-(dimethylamino)propoxy]-2-methoxyphenyl]thiazol-2-yl]methylcarbamoyl]-5,6-difluoro-indan-2-yl]acetic acid]",60 to 75%,50 to 200 nM,–
"COc1cc(OCCC[N+](C)(C)C)ccc1-c1csc(CNC(=O)C2(CC(=O)[O-])Cc3cc(F)c(F)cc3C2)n1 [Example 81, 2-[5,6-difluoro-2-[[4-[2-methoxy-4-[3-(trimethylammonio)propoxy]phenyl]thiazol-2-yl]methylcarbamoyl]indan-2-yl] acetate]",60 to 75%,50 to 200 nM,–
"COc1cc(OCC(=O)N2CC[N+](C)(C)CC2)ccc1-c1csc(CNC(=O)C2(CC(=O)[O-])Cc3cc(F)c(F)cc3C2)n1 [Example 82, 2-[2-[[4-[4-[2-(4,4-dimethylpiperazin-4-ium-1-yl)-2-oxo-ethoxy]-2-methoxy-phenyl]thiazol-2-yl]methylcarbamoyl]-5,6-difluoro-indan-2-yl]acetate]",60 to 75%,50 to 200 nM,–
"COc1cc(OCCN2CCN(C)C(=O)C2)ccc1-c1csc(CNC(=O)C2(CC(=O)O)Cc3ccccc3C2)n1 [Example 83, 2-[2-[[4-[2-methoxy-4-[2-(4-methyl-3-oxo-piperazin-1-yl)ethoxy]phenyl]thiazol-2-yl]methylcarbamoyl]indan-2-yl]acetic acid]",> 75%,< 50 nM,–
"COc1cc(OCC[N+]2(C)CCN(C)C(=O)C2)ccc1-c1csc(CNC(=O)C2(CC(=O)[O-])Cc3ccccc3C2)n1 (stereo not shown) [Example 84, 2-[2-[[4-[4-[2-(1,4-dimethyl-3-oxo-piperazin-1-ium-1-yl)ethoxy]-2-methoxy-phenyl]thiazol-2-yl]methylcarbamoyl]indan-2-yl]acetate]",60 to 75%,50 to 200 nM,–
"COc1cc(OCCc2nccn2C)ccc1-c1csc(CNC(=O)C2(CC(=O)O)Cc3ccccc3C2)n1 [Example 85, 2-[2-[[4-[2-methoxy-4-[2-(1-methylimidazol-2-yl)ethoxy]phenyl]thiazol-2-yl]methylcarbamoyl]indan-2-yl]acetic acid]",60 to 75%,50 to 200 nM,–
"COc1cc(OCCc2n(C)cc[n+]2C)ccc1-c1csc(CNC(=O)C2(CC(=O)[O-])Cc3cc(F)c(F)cc3C2)n1 [Example 86, 2-[2-[[4-[4-[2-(1,3-dimethylimidazol-1-ium-2-yl)ethoxy]-2-methoxy-phenyl]thiazol-2-yl]methylcarbamoyl]-5,6-difluoro-indan-2-yl]acetate]",60 to 75%,50 to 200 nM,–
"Cn1cc[n+](C)c1CCOc1ccc(-c2csc(CNC(=O)C3(CC(=O)[O-])Cc4ccccc4C3)n2)cc1 [Example 87, 2-[2-[[4-[4-[2-(1,3-dimethylimidazol-1-ium-2-yl)ethoxy]phenyl]thiazol-2-yl]methylcarbamoyl]indan-2-yl]acetate]",10 to 60%,50 to 200 nM,–
COc1cc(OCCN2CCN(C(C)=O)CC2)ccc1-c1csc(CNC(=O)C2(CC(=O)O)Cc3ccccc3C2)n1 [Example 88],> 75%,< 50 nM,–
"Cn1cc(-c2csc(CNC(=O)C3(CC(=O)O)Cc4ccccc4C3)n2)cn1 [Example 89, 2-[2-[[4-(1-methylpyrazol-4-yl)thiazol-2-yl]methylcarbamoyl]indan-2-yl]acetic acid]",60 to 75%,50 to 200 nM,–
"Cn1ccc(-c2csc(CNC(=O)C3(CC(=O)O)Cc4ccccc4C3)n2)n1 [Example 90, 2-[2-[[4-(1-methylpyrazol-3-yl)thiazol-2-yl]methylcarbamoyl]indan-2-yl]acetic acid]",60 to 75%,200 to 10000 nM,–
"Cc1c(-c2csc(CNC(=O)C3(CC(=O)O)Cc4ccccc4C3)n2)cnn1C [Example 91, 2-[2-[[4-(1,5-dimethylpyrazol-4-yl)thiazol-2-yl]methylcarbamoyl]indan-2-yl]acetic acid]",> 75%,50 to 200 nM,–
"Cn1nccc1-c1csc(CNC(=O)C2(CC(=O)O)Cc3ccccc3C2)n1 [Example 92, 2-[2-[[4-(2-methylpyrazol-3-yl)thiazol-2-yl]methylcarbamoyl]indan-2-yl]acetic acid]",60 to 75%,50 to 200 nM,–
"Cc1nn(C)cc1-c1csc(CNC(=O)C2(CC(=O)O)Cc3ccccc3C2)n1 [Example 93, 2-[2-[[4-(1,3-dimethylpyrazol-4-yl)thiazol-2-yl]methylcarbamoyl]indan-2-yl]acetic acid]",60 to 75%,50 to 200 nM,–
"O=C(O)CC1(C(=O)NCc2nc(-c3cncnc3)cs2)Cc2ccccc2C1 [Example 94, 2-[2-[(4-pyrimidin-5-ylthiazol-2-yl)methylcarbamoyl]indan-2-yl]acetic acid]",60 to 75%,200 to 10000 nM,–
"O=C(O)CC1(C(=O)NCc2nc(-c3ccncc3)cs2)Cc2ccccc2C1 [Example 95, 2-[2-[[4-(4-pyridyl)thiazol-2-yl]methylcarbamoyl]indan-2-yl]acetic acid]",60 to 75%,200 to 10000 nM,–
"O=C(O)CC1(C(=O)NCc2nc(-c3cnn(CCN4CCOCC4)c3)cs2)Cc2ccccc2C1 [Example 96, 2-[2-[[4-[1-(2-morpholinoethyl)pyrazol-4-yl]thiazol-2-yl]methylcarbamoyl]indan-2-yl]acetic acid]",60 to 75%,50 to 200 nM,–
"Cc1cc(-c2csc(CNC(=O)C3(CC(=O)O)Cc4ccccc4C3)n2)n[nH]1 [Example 98, 2-[2-[[4-(5-methyl-1H-pyrazol-3-yl)thiazol-2-yl]methylcarbamoyl]indan-2-yl] acetic acid]",60 to 75%,200 to 10000 nM,–
"O=C(O)CC1(C(=O)NCc2nc(-c3cnn(CCCN4CCOCC4)c3)cs2)Cc2ccccc2C1 [Example 99, 2-[2-[[4-[1-(3-morpholinopropyl)pyrazol-4-yl]thiazol-2-yl]methylcarbamoyl]indan-2-yl]acetic acid]",60 to 75%,50 to 200 nM,–
CN1CCN(C(=O)Cn2cc(-c3csc(CNC(=O)C4(CC(=O)O)Cc5ccccc5C4)n3)cn2)CC1 [Example 101],60 to 75%,–,200 to 10000 nM
"CN1CCC(n2cc(-c3csc(CNC(=O)C4(CC(=O)O)Cc5ccccc5C4)n3)cn2)CC1 [Example 102, 2-[2-[[4-[1-(1-methyl-4-piperidyl)pyrazol-4-yl]thiazol-2-yl]methylcarbamoyl]indan-2-yl]acetic acid]",60 to 75%,200 to 10000 nM,–
"CN(C)CC(=O)N1CCC(n2cc(-c3csc(CNC(=O)C4(CC(=O)O)Cc5ccccc5C4)n3)cn2)CC1 [Example 103, 2-[2-[[4-[1-[1-[2-(dimethylamino)acetyl]-4-piperidyl]pyrazol-4-yl]thiazol-2-yl]methylcarbamoyl]indan-2-yl]acetic acid]",60 to 75%,200 to 10000 nM,–
"CN1CCN(C(=O)N2CCC(n3cc(-c4csc(CNC(=O)C5(CC(=O)O)Cc6ccccc6C5)n4)cn3)CC2)CC1 [Example 104, 2-[2-[[4-[1-[1-(4-methylpiperazine-1-carbonyl)-4-piperidyl]pyrazol-4-yl]thiazol-2-yl]methylcarbamoyl]indan-2-yl]acetic acid]",60 to 75%,50 to 200 nM,–
"CN1CCN(C(=O)CN2CCC(n3cc(-c4csc(CNC(=O)C5(CC(=O)O)Cc6ccccc6C5)n4)cn3)CC2)CC1 [Example 105, 2-[2-[[4-[1-[1-[2-(4-methylpiperazin-1-yl)-2-oxo-ethyl]-4-piperidyl]pyrazol-4-yl]thiazol-2-yl]methylcarbamoyl]indan-2-yl]acetic acid]",60 to 75%,50 to 200 nM,–
"CC(=O)N1CCN(CCCn2cc(-c3csc(CNC(=O)C4(CC(=O)O)Cc5ccccc5C4)n3)cn2)CC1 [Example 106, 2-[2-[[4-[1-[3-(4-acetylpiperazin-1-yl)propyl]pyrazol-4-yl]thiazol-2-yl]methylcarbamoyl]indan-2-yl]acetic acid]",60 to 75%,50 to 200 nM,–

# Source: EP3628672A1 (priority 2018, dated 2020)
